The structures appear in SMILES notation.

The values below come from patent publication US6743794B2, “Methods and compounds for inhibiting MRP1” (Eli Lilly and Company, priority 1999, dated 2004).

One data set has as its target T1, MRP1 (Homo sapiens, UniProt P33527).
T1 construct: HL60/Adr and HL60/Vinc are continuous cell lines, which were selected for doxorubicin and vincristine resistance respectively; endogenous in cells; host or cells: HL60/Adr (doxorubicin-selected HL60)
Kind of data set: Assay for reversal of MRP1-mediated doxorubicin resistance (HL60/Adr cells, alamarBlue viability). In kind it is cell-based. To be noted: oncolytic alone at the tested concentration, no test compound. The protocol: (§1) The biological activity of the compounds of the present invention was evaluated employing an initial screening assay which rapidly and accurately measured the activity of the tested compound in inhibiting MRP1 or MDR1. Assays useful for evaluating this reversing capability are well known in the art. See, e.g., T. McGrath, et al., Biochemical Pharmacology, 38:3611, 1989; D. Marquardt and M. S. Center, Cancer Research, 52:3157, 1992; D. Marquardt, et al., Cancer Research, 50:1426, 1990; and Cole, et. al., Cancer Research, 54: 5902-5910, 1994.
(§2) Assay for Reversal of MRP1-Mediated Doxorubicin Resistance and MDR1-Mediated Vincristine Resistance
(§3) HL60/Adr and HL60/Vinc are continuous cell lines, which were selected for doxorubicin and vincristine resistance respectively by culturing HL60, a human acute myeloblastic leukemia cell line, in increasing concentrations of doxorubicin or vincristine until a highly resistant variant was attained.
(§4) HL60/Adr and HL60/Vinc cells were grown in RPMI 1640 (Gibco) containing 10% fetal bovine serum (FBS) and 50 μg/ml GENTAMICIN™ (Sigma). Cells were harvested; washed twice with assay medium (same as culture media); counted; and diluted to 1×10^5 cells/ml in assay medium. One hundred microliters of cells were aliquoted into wells of a 96 well tissue culture plate. […]

Another data set deals with T2, MDR1 (Homo sapiens, UniProt P08183).
T2 construct: HL60/Adr and HL60/Vinc are continuous cell lines, which were selected for doxorubicin and vincristine resistance respectively; endogenous in cells; host or cells: HL60/Vinc (vincristine-selected HL60)
Briefly: Assay for reversal of MDR1-mediated vincristine resistance (HL60/Vinc cells, alamarBlue viability). In kind it is cell-based. As to conditions: oncolytic alone at the tested concentration, no test compound. On the procedure:
as §1, §2, §3, §4

T2 sequence (P08183 whole entry): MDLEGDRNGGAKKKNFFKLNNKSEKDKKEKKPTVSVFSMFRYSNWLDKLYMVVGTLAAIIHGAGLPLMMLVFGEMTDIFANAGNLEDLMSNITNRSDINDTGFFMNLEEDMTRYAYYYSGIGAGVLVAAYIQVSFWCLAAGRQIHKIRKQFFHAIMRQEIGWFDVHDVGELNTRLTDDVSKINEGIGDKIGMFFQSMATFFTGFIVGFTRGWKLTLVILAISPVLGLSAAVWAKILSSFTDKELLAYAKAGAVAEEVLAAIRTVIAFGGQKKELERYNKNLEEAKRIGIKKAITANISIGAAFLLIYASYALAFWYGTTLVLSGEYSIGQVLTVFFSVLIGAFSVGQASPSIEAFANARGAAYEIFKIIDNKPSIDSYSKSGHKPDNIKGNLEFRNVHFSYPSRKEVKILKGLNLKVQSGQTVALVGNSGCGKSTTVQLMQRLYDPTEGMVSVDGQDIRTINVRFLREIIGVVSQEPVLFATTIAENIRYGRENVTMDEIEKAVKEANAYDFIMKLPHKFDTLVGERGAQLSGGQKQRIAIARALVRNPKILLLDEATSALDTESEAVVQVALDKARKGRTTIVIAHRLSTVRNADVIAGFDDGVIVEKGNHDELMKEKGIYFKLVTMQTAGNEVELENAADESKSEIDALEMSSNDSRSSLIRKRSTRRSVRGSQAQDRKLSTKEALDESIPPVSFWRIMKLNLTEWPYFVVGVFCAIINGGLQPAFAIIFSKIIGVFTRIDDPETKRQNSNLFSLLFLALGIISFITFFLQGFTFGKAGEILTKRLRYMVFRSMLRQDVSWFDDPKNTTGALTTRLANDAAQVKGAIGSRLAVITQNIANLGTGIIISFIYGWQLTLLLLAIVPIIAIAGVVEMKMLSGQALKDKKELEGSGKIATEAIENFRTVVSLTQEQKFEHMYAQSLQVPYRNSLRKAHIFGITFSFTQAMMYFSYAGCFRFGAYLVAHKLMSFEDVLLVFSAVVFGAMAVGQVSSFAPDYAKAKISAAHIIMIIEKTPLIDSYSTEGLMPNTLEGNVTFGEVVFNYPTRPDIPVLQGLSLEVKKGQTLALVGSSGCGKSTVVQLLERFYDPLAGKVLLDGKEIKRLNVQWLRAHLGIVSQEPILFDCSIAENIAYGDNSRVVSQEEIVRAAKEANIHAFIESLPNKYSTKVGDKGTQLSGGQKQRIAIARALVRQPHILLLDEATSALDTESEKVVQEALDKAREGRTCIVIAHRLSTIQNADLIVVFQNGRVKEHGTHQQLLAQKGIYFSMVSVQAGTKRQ
T1 sequence (P33527 whole entry): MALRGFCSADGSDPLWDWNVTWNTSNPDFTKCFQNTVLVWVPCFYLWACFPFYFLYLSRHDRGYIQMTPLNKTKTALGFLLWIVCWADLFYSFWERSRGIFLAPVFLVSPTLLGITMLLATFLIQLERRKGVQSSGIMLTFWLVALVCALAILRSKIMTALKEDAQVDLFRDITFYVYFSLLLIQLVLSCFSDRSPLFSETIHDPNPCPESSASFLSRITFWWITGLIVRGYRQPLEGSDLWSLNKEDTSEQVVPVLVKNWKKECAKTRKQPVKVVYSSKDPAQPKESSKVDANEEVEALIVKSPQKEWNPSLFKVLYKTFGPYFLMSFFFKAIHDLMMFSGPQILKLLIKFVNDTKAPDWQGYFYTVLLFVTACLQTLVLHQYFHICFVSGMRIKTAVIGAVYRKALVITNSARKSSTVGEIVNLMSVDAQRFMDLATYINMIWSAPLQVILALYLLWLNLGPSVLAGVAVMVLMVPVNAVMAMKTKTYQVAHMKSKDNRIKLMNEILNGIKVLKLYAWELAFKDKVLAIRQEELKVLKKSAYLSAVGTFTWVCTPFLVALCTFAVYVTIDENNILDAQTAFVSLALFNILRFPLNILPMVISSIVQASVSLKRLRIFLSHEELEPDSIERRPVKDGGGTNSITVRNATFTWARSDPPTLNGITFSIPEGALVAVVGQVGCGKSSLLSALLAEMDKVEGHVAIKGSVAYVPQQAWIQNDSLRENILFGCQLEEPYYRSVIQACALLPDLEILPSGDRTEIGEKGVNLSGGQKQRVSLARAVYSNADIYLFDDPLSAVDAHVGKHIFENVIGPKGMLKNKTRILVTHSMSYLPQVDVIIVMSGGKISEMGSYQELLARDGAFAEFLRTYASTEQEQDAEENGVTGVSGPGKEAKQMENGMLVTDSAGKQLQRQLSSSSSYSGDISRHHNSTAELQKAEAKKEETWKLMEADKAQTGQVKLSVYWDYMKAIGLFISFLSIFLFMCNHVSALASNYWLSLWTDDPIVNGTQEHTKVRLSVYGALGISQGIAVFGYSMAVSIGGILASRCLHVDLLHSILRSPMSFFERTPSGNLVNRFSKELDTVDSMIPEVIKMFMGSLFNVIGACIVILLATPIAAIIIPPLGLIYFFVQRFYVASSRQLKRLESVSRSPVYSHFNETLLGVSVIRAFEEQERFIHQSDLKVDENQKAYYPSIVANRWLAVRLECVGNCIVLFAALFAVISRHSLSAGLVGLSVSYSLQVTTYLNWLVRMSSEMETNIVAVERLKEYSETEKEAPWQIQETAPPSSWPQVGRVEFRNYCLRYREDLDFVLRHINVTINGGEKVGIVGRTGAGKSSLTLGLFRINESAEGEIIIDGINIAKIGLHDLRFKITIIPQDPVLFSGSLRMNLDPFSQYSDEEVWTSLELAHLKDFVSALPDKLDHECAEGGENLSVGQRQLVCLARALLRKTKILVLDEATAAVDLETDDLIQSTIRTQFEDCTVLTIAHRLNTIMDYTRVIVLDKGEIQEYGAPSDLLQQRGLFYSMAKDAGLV

With `COc1cccc2c1C(=O)c1c(O)c3c(c(O)c1C2=O)C[C@@](O)(C(=O)CO)C[C@@H]3O[C@H]1C[C@H](N)[C@H](O)[C@H](C)O1` [doxorubicin], the “inhibition of cell growth by the oncolytic alone” value on MRP1 and on MDR1 was “minimally inhibits” throughout.
